The results in this text go back to patent US20150291598A1 (NOVARTIS AG, priority 2012, published 2015).

The test system of one assay is P. falciparum (NF54 or 3D7 strain). Put plainly: Assay for P. falciparum proliferation in infected human blood cells (SYBR Green). Type of assay: cell-based, Plasmodium falciparum. The conditions noted are these: NF54 or 3D7 infected human erythrocytes, 72 hours; read-out: EC50 (nM), inhibitory efficacy in delaying P. falciparum proliferation in infected human blood cells. Put shortly: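 NF54 or 3D7 parasites in O+ human erythrocytes at 2.5% hematocrit and 0.3% parasitemia final, exposed to compounds 72 h at 37 °C under 93% N2/4% CO2/3% O2.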
In the case of `C[C@@H](N)C(=O)Nc1ccc(-c2cnc3cnc(C(=O)N(C)c4ccc(C#N)cc4)cn23)cc1` [Compound 282, 3-{4-[(2R)-2-aminopropanamido]phenyl}-N-(4-cyanophenyl)-N-methylimidazo[1,2-a]pyrazine-6-carboxamide], the EC50 came to 252 nM.

Still in this assay, the particulars now being: Plasmodium falciparum, 3D7|NF54, Erythrocyte, in Homo sapiens, 72 h, NF54 or 3D7 infected human erythrocytes, 72 hours; read-out: EC50 (nM), inhibitory efficacy in delaying P. falciparum proliferation in infected human blood cells.
With `CN(C(=O)c1cn2c(-c3cc4cc(C#N)ccc4[nH]3)cnc2cn1)c1ccc(C#N)cc1` [Compound 252], the EC50 was > 8280 nM.

Still in this assay, the particulars now being: Plasmodium falciparum, Erythrocyte, 72 h, NF54 or 3D7 infected human erythrocytes, 72 hours; read-out: EC50 (nM), inhibitory efficacy in delaying P. falciparum proliferation in infected human blood cells.
Turning to `CCOC(=O)c1cnc2cnc(C(=O)N(C)c3ccc(Cl)nc3)cn12` [Compound 253, ethyl 6-[(6-chloropyridin-3-yl)(methyl)carbamoyl]imidazo[1,2-a]pyrazine-3-carboxylate], the EC50 worked out at 2460 nM.
`CCOC(=O)Nc1ccc(-c2cnc3cnc(C(=O)N(C)c4ccc(C#N)cc4)cn23)cc1` [Compound 254, ethyl N-(4-{6-[(4-cyanophenyl)(methyl)carbamoyl]imidazo[1,2-a]pyrazin-3-yl}phenyl)carbamate]: the EC50 came to 67 nM.
The same measure, in the same setting: under `CN(C(=O)c1cn2c(-c3ccc(NC(=O)C4CCC[C@H]4N)cc3)cnc2cn1)c1ccc(C#N)cc1` (stereo partly drawn) [Compound 255, 3-(4-{[(1S,2R)-2-aminocyclopentane]amido}phenyl)-N-(4-cyanophenyl)-N-methylimidazo[1,2-a]pyrazine-6-carboxamide] stands 155 nM; under `CC(C)[C@@H](N)CC(=O)Nc1ccc(-c2cnc3cnc(C(=O)N(C)c4ccc(C#N)cc4)cn23)cc1` [Compound 256, 3-{4-[(3S)-3-amino-4-methylpentanamido]phenyl}-N-(4-cyanophenyl)-N-methylimidazo[1,2-a]pyrazine-6-carboxamide], 240 nM; under `CN(C(=O)c1cn2c(-c3ccc(-c4ccn[nH]4)cc3)cnc2cn1)c1ccc(F)cc1` [Compound 257, N-(4-fluorophenyl)-N-methyl-3-[4-(1H-pyrazol-5-yl)phenyl]imidazo[1,2-a]pyrazine-6-carboxamide], 92 nM.
As for `CN(C(=O)c1cn2c(-c3ccc(-c4ccn[nH]4)cc3)cnc2cn1)c1ccc(F)c(F)c1` [Compound 258, N-(3,4-difluorophenyl)-N-methyl-3-[4-(1H-pyrazol-5-yl)phenyl]imidazo[1,2-a]pyrazine-6-carboxamide], the EC50 was 76 nM.
The same measure, in the same setting: the result for `CN(C(=O)c1ccc(Cl)cc1)c1cn2c(-c3ccc(C(F)(F)F)cc3)cnc2cn1` [Compound 259, 4-chloro-N-methyl-N-{3-[4-(trifluoromethyl)phenyl]imidazo[1,2-a]pyrazin-6-yl}benzamide] reads 414 nM; that for `COC(=O)Nc1ccc(-c2cnc3cnc(C(=O)N(C)c4ccc(C#N)cc4)cn23)cn1` [Compound 260, methyl N-(5-{6-[(4-cyanophenyl)(methyl)carbamoyl]imidazo[1,2-a]pyrazin-3-yl}pyridin-2-yl)carbamate], 399 nM.
For `CC(C)OC(=O)Nc1ccc(-c2cnc3cnc(C(=O)N(C)c4ccc(C#N)cc4)cn23)cc1` [Compound 261, Propan-2-yl N-(4-{6-[(4-cyanophenyl)(methyl)carbamoyl]imidazo[1,2-a]pyrazin-3-yl}phenyl)carbamate], the EC50 amounted to 408 nM.
On the same count and under the same terms, under `CNc1nnc(-c2ccc(-c3cnc4cnc(C(=O)N(C)c5ccc(Cl)nc5)cn34)cc2)s1` [Compound 262, N-(6-chloropyridin-3-yl)-N-methyl-3-{4-[5-(methylamino)-1,3,4-thiadiazol-2-yl]phenyl}imidazo[1,2-a]pyrazine-6-carboxamide] stands 97 nM; under `Cc1ccc(N(C)Cc2cn3c(-c4ccc(C(F)(F)F)cc4)cnc3cn2)cc1` [Compound 263, N,4-dimethyl-N-({3-[4-(trifluoromethyl)phenyl]imidazo[1,2-a]pyrazin-6-yl}methyl)aniline], 436 nM.
On the same count and under the same terms, the result for `CN(C(=O)c1ccc(Cl)cn1)c1cn2c(-c3ccc(C(F)(F)F)cc3)cnc2cn1` [Compound 264, 5-chloro-N-methyl-N-{3-[4-(trifluoromethyl)phenyl]imidazo[1,2-a]pyrazin-6-yl}pyridine-2-carboxamide] reads 277 nM; that for `CN(C(=O)c1cn2c(-c3ccc(C(F)F)cc3)cnc2cn1)c1ccc(Cl)nc1` [Compound 265, N-(6-chloropyridin-3-yl)-3-[4-(difluoromethyl)phenyl]-N-methylimidazo[1,2-a]pyrazine-6-carboxamide], 318 nM; that for `CC(C)[C@H](N)C(=O)Nc1ccc(-c2cnc3cnc(C(=O)N(C)c4ccc(C#N)cc4)cn23)cc1` [Compound 266, 3-{4-[(2S)-2-amino-3-methylbutanamido]phenyl}-N-(4-cyanophenyl)-N-methylimidazo[1,2-a]pyrazine-6-carboxamide], 234 nM.
On the same count and under the same terms, under `CN(C(=O)c1ccc(Cl)nc1)c1cn2c(-c3ccc(C(F)(F)F)cc3)cnc2cn1` [Compound 267, 6-chloro-N-methyl-N-{3-[4-(trifluoromethyl)phenyl]imidazo[1,2-a]pyrazin-6-yl}pyridine-3-carboxamide] stands 424 nM; under `CN(C(=O)c1ccc(F)cc1)c1cn2c(-c3ccc(C(F)(F)F)cc3)cnc2cn1` [Compound 268, 4-fluoro-N-methyl-N-{3-[4-(trifluoromethyl)phenyl]imidazo[1,2-a]pyrazin-6-yl}benzamide], 112 nM; under `C[C@@H](N)CC(=O)Nc1ccc(-c2cnc3cnc(C(=O)N(C)c4ccc(C#N)cc4)cn23)cc1` [Compound 269, 3-{4-[(3R)-3-aminobutanamido]phenyl}-N-(4-cyanophenyl)-N-methylimidazo[1,2-a]pyrazine-6-carboxamide], 651 nM.
Turning to `CN(C(=O)c1cn2c(-c3ccc(NC(=O)C(N)C4CCC4)cc3)cnc2cn1)c1ccc(C#N)cc1` (stereo not drawn) [Compound 270, 3-[4-(2-amino-2-cyclobutylacetamido)phenyl]-N-(4-cyanophenyl)-N-methylimidazo[1,2-a]pyrazine-6-carboxamide], the EC50 turned out to be 605 nM.
`CN(C(=O)c1cn2c(-c3ccc(N)nc3)cnc2cn1)c1ccc(C#N)cc1` [Compound 272, 3-(6-aminopyridin-3-yl)-N-(4-cyanophenyl)-N-methylimidazo[1,2-a]pyrazine-6-carboxamide]: the EC50 turned out to be 295 nM.
On the same count and under the same terms, under `CN(C(=O)c1cn2c(-c3ccc(OCC#N)cc3)cnc2cn1)c1ccc(C#N)cc1` [Compound 273, 3-[4-(cyanomethoxy)phenyl]-N-(4-cyanophenyl)-N-methylimidazo[1,2-a]pyrazine-6-carboxamide] stands 186 nM; under `N#Cc1ccc2c(c1)CCCN2C(=O)c1cn2c(-c3ccc(C(F)(F)F)cc3)cnc2cn1` [Compound 274, 1-({3-[4-(trifluoromethyl)phenyl]imidazo[1,2-a]pyrazin-6-yl}carbonyl)-1,2,3,4-tetrahydroquinoline-6-carbonitrile], 224 nM; under `CN(C(=O)c1cn2c(-c3ccc(C(F)(F)F)cc3F)cnc2cn1)c1ccc(Cl)nc1` [Compound 275, N-(6-chloropyridin-3-yl)-3-[2-fluoro-4-(trifluoromethyl)phenyl]-N-methylimidazo[1,2-a]pyrazine-6-carboxamide], 468 nM.
With `CN(C(=O)c1ccc(C(F)(F)F)cc1)c1cn2c(-c3ccc(C(F)(F)F)cc3)cnc2cn1` [Compound 276, N-methyl-4-(trifluoromethyl)-N-{3-[4-(trifluoromethyl)phenyl]imidazo[1,2-a]pyrazin-6-yl}benzamide], the EC50 was determined as 310 nM.
On the same count and under the same terms, the result for `Cc1ccc(N(C)C(=O)c2cn3c(-c4ccc(C(F)(F)F)cc4)cnc3cn2)cn1` [Compound 277, N-methyl-N-(6-methylpyridin-3-yl)-3-[4-(trifluoromethyl)phenyl]imidazo[1,2-a]pyrazine-6-carboxamide] reads 1130 nM; that for `CN(C(=O)c1cn2c(-c3ccc(NCC(C)(C)N)cc3)cnc2cn1)c1ccc(C#N)cc1` [Compound 278, 3-{4-[(2-amino-2-methylpropyl)amino]phenyl}-N-(4-cyanophenyl)-N-methylimidazo[1,2-a]pyrazine-6-carboxamide], 784 nM; that for `CC(=O)Nc1ccc(-c2cnc3cnc(C(=O)N(C)c4ccc(Cl)nc4)cn23)cc1` [Compound 279, N-(6-chloropyridin-3-yl)-3-(4-acetamidophenyl)-N-methylimidazo[1,2-a]pyrazine-6-carboxamide], 454 nM.
Regarding `COc1ccc(-c2cnc3cnc(C(=O)N(C)c4ccc(Cl)nc4)cn23)c(F)c1` [Compound 280, N-(6-chloropyridin-3-yl)-3-(2-fluoro-4-methoxyphenyl)-N-methylimidazo[1,2-a]pyrazine-6-carboxamide], the EC50 is 707 nM.
On the same count and under the same terms, under `CN(C(=O)c1ccc(C#N)cc1)c1cn2c(-c3ccc(C(F)(F)F)cc3)cnc2cn1` [Compound 283, 4-cyano-N-methyl-N-{3-[4-(trifluoromethyl)phenyl]imidazo[1,2-a]pyrazin-6-yl}benzamide] stands 178 nM; under `CN(C)CCOc1ccc(-c2cnc3cnc(C(=O)N(C)c4ccc(C#N)cc4)cn23)cc1` [Compound 284, N-(4-cyanophenyl)-3-{4-[2-(dimethylamino)ethoxy]phenyl}-N-methylimidazo[1,2-a]pyrazine-6-carboxamide], 947 nM; under `CC(C)[C@@H](N)C(=O)Nc1ccc(-c2cnc3cnc(C(=O)N(C)c4ccc(C#N)cc4)cn23)cc1` [Compound 286, 3-{4-[(2R)-2-amino-3-methylbutanamido]phenyl}-N-(4-cyanophenyl)-N-methylimidazo[1,2-a]pyrazine-6-carboxamide], 402 nM.
Take `Cc1ccc(N(C)Cc2cn3c(-c4ccc(C(F)(F)F)cc4)cnc3cn2)nc1` [Compound 287, N,5-dimethyl-N-({3-[4-(trifluoromethyl)phenyl]imidazo[1,2-a]pyrazin-6-yl}methyl)pyridin-2-amine]: the EC50 was found to be 972 nM.
